In series [1] the test system is A-375. Nature of the series: Induction of cell cycle arrest in human A-375 cells assessed as accumulation at G1 phase at 10 mM incubated for 24 hrs by PI staining based flow cytometry analysis (reference value: 68.07 %). The format is functional.
The nature of series [2]: Apparent permeability across apical to basolateral side in human Caco-2 cells at 2 uM measured after 2 hrs by LC-MS/MS analysis. The format is ADME, cell-based. For orientation: Passage across Caco-2 layers is used to estimate intestinal permeability.
Series [3] has as its system MDA-MB-231. Nature of the series: Antiproliferative activity against human MDA-MB-231 cells assessed as inhibition of cell viability incubated for 72 hrs by MTT assay. The format is functional, cell-based. The conditions noted are these: MDA-MB-231, 72 h. For orientation: Tetrazolium dyes change colour on reduction, which living cells bring about.
Series [4] has as its system A-375. Nature of the series: Induction of cell cycle arrest in human A-375 cells assessed as accumulation at S phase at 10 mM incubated for 24 hrs by PI staining based flow cytometry analysis (reference value: 24.01 %). The format is functional.
The test system of series [5] is A-375. Nature of the series: Induction of cell cycle arrest in human A-375 cells assessed as accumulation at G2 phase at 10 mM incubated for 24 hrs by PI staining based flow cytometry analysis (reference value: 7.92 %). The format is functional. Background: A flow cytometer gives signals particle by particle.
Series [6] relates to A-375. Nature of the series: Antitumor activity against human A-375 cells xenografted in nude mouse assessed as tumor inhibition ratio at 80 mg/kg, ip measured once every two days for 14 days. The conditions noted are these: A-375, 336 h, time 14 day, read-out: TGI. The format is functional.
The test system of series [7] is A-375. Nature of the series: Effect on mitochondrial bio-energestics in human A-375 cells assessed as increase in OCR/ECRA ratio at 5 mM measured after 4 hrs. The format is functional, cell-based.
The nature of series [8]: Efflux ratio of apparent permeability from basolateral to apical side over apical to basolateral side in human Caco2 cells by LC-MS/MS analysis. The format is ADME, cell-based. Particulars: Caco-2.
The nature of series [9]: Apparent permeability across basolateral to apical side in human Caco-2 cells at 2 uM measured after 2 hrs by LC-MS/MS analysis. The format is ADME, cell-based.
Series [10] has as its system A-375. Nature of the series: Antiproliferative activity against human A-375 cells assessed as inhibition of cell viability incubated for 72 hrs by MTT assay. It is filed as functional, cell-based. Particulars: A-375, 72 h.
Series [11] deals with A-375. Nature of the series: Inhibition of glycolysis in human A-375 cells assessed as reduction in extracellular acidification rate at 5 mM measured after 4 hrs. It is filed as functional, cell-based.
Series [12] deals with MCF7. Nature of the series: Antiproliferative activity against human MCF7 cells assessed as inhibition of cell viability incubated for 72 hrs by MTT assay. Particulars: MCF7, 72 h. It is filed as functional, cell-based.
Series [13] relates to A549. Nature of the series: Antiproliferative activity against human A549 cells assessed as inhibition of cell viability incubated for 72 hrs by MTT assay. It is filed as functional, cell-based. Particulars: A549, 72 h.
Series [14] has as its system A-375. Nature of the series: Antitumor activity against human A-375 cells implanted in BALB/c mouse assessed as reduction in tumor weight at 70 mg/kg, ip measured once every two days for 14 days. It is filed as functional, organism-based. The conditions noted are these: time 14.0 day.
The subject of series [15] is A-375. Nature of the series: Antitumor activity against human A-375 cells implanted in BALB/c mouse assessed as tumor growth inhibition at 70 mg/kg, ip measured once every two days for 14 days. It is filed as functional, organism-based. The conditions noted are these: time 14.0 day.
Series [16] has as its system A-375. Nature of the series: Antitumor activity against human A-375 cells implanted in BALB/c mouse assessed as shrinkage of tumor tissue at 70 mg/kg, ip measured once every two days for 14 days. The format is functional, organism-based. The conditions noted are these: time 14.0 day.
A short description of series [17]: Toxicity in BALB/c mouse assessed as change in body weight at 70 mg/kg, iv measured once every two days for 7 days. It is filed as organism-based. Particulars: in vivo, 168 h, time 7 day.
Series [18] relates to A-375. Nature of the series: Antitumor activity against human A-375 cells implanted in BALB/c mouse assessed as shrinkage of tumor tissue at 20 mg/kg, ip measured once every two days for 14 days. The format is functional, organism-based. Particulars: time 14.0 day.
Series [19] in a line: Toxicity in BALB/c mouse assessed as change in body weight at 20 mg/kg, iv measured once every two days for 7 days. The format is organism-based. Particulars: in vivo, 168 h, time 7 day.
Series [20] relates to A-375. Nature of the series: Antitumor activity against human A-375 cells implanted in BALB/c mouse assessed as reduction in tumor weight at 20 mg/kg, ip measured once every two days for 14 days. The format is functional, organism-based. Particulars: time 14.0 day.
The subject of series [21] is A-375. Nature of the series: Antitumor activity against human A-375 cells implanted in BALB/c mouse assessed as suppression of tumor growth at 20 mg/kg, ip measured once every two days for 14 days. It is filed as functional, organism-based. Particulars: time 14.0 day.

The structures appear in SMILES notation. Calls of active or inactive are those of the source. No cut-off for these calls is given here. Bounds are passed on as bounds.

In general, Papp A→B refers to how fast a substance crosses the layer from the apical side. Broadly, the IC50 is the point on the concentration scale where inhibition reaches its midpoint. Usually efflux ratio stands for a quotient of directional permeabilities that is used to spot active efflux. In general, Papp B→A refers to the apparent permeability from the basolateral to the apical side of a cell layer.

For the compound `O=C(O)CCCc1ccccc1`, the Activity turned out to be 87.33% in series [1], 7.4% in [4] and 5.38% in series [5]. In addition, in [2], the Papp A→B at 2 h, 2 µM was under 0.48 ×10⁻⁶ cm/s. For the same compound, the IC50 is 11.7 mM in series [3], 8.94 mM in series [10], 10.7 mM in [12] and 9.75 mM in series [13]. Also, in series [6], the inhibition in vivo at 80 mg/kg was found to be 10%. In series [7], the result was Active. In addition, the efflux ratio in series [8] was over 1.54. For the same compound, the Papp B→A at 2 h, 2 µM in series [9] worked out at 0.74 ×10⁻⁶ cm/s. The inhibition entry in series [11] is “Active”.

For `CN(C)/N=N/c1[nH]cnc1C(N)=O` [DACARBAZINE], the outcome in [14], in series [15] and in series [16] was Active. For the same compound, the Activity result in [17] is “Toxic”.

Turning to `CCCS(=O)(=O)Nc1ccc(F)c(C(=O)c2c[nH]c3ncc(-c4ccc(Cl)cc4)cc23)c1F` [VEMURAFENIB], the outcome in series [18], in series [20] and in series [21] was Active. Further, the Activity entry in series [19] is given as “Non-Toxic”.

The values above are taken from ChEMBL document CHEMBL5120920, “A Mitochondria-Targeted Phenylbutyric Acid Prodrug Confers Drastically Improved Anticancer Activities” (J Med Chem, 2022).
